Assay results taken from patent US7442681B2, “Method of inhibiting vascular permeability” (University of Virginia Patent Foundation, priority 2004, dated 2008).
Where no end group is shown, it is not given here.

Columns and labels:
myosin light chain (MLC) = test: MLC phosphorylation, Western blot, BAEC; assay type: cell-based, bovine; conditions: 25 ng/ml VEGF, 20 μg/ml peptide or 5 μM ML7
Experimental: FIG. 6. Regulation of myosin light chain (MLC) phosphorylation by PAK. FIG. 6A: confluent BAEC on FN were treated with vehicle only (+vehicle), 20 μg/ml control peptide (+con pep), 20 μg/ml PAK-blocking peptide (+PAK pep; SEQ ID NO:1), 5 μM ML7 (+ML7) with (+) or without (−) 25 ng/ml VEGF. […] FIG. 6B: as described in A, BAEC were pretreated with 20 μg/ml control peptide (+con pep) or PAK-blocking peptide (+PAK pep) followed by 25 ng/ml of VEGF, 25 ng/ml bFGF, 10 μM histamine, 0.1 units/ml thrombin, or 10 ng/ml of TNF. Upper row, anti-phospho-MLC (pMLC); middle row, total MLC (total MLC); and lower row, pMLC plus an antigenic phospho-peptide (pMLC+AP). […]
Western Blots—Confluent cells were starved in 0.5% serum for 18 h, treated as described in the legends to FIGS. 1, 2, 3 and 6, washed with cold PBS, and then harvested by scraping in cold lysis buffer (25 mM Tris, pH 7.4, 1% Nonidet P-40, 0.5% sodium deoxycholate, 137 mM NaCl, 50 μM EDTA, 10 μg/ml each aprotinin and leupeptin, 1 mM phenylmethylsulfonyl fluoride). […] Protein was transferred to polyvinylidene difluoride membrane, and blots were probed with primary antibodies (described under “Fluorescence Imaging”) followed by horseradish peroxidase-conjugated secondary antibodies (Jackson ImmunoResearch, Inc.). […]

murine lungs = test: Histology of murine lungs treated with peptide and LPS; assay type: in vivo; conditions: mice, peptide 1 mg ip, no LPS
Excerpt: FIG. 9. Histology of murine lungs treated with PAK blocking peptide and LPS. FIGS. 9A (200× magnification), 9B (400×), and 9C (200×) represent photomicrographic images. […] There is some phosphoPAK staining (visible as brown stain in the original color micrographs) present in epithelial structures, alveolar walls (composed of mixed cell types), and vessel endothelium and smooth muscle. Arrow indicates a normal small vessel with red blood cells and few circulating leukocytes. Tissues were counterstained with hematoxylin.
FIG. 10. Histology of murine lungs treated with PAK blocking peptide and LPS. FIGS. 10A (200× magnification), 10B (400×), and 10C (200×) represent photomicrographic images. […] Vessel sections (arrow) indicate that LPS highly increases the amount of pPAK in vessel walls, and also produces inflammatory enlargement of vessels, with an increase in numbers of recruited neutrophils and monocytes admixed with red blood cells and intravasating through vessel walls, an indicator of acute inflammation. Some alveolar tissues are completely eroded and filled with exudate and dead cells (FIG. 10C). Tissues were counterstained with hematoxylin.
FIG. 11. Histology of murine lungs treated with PAK blocking peptide and LPS. FIGS. 11A (200× magnification), 11B (400×), and 11C (200×) represent photomicrographic images. […]

BAEC = test: Paracellular pore formation assay, BAEC on filters; assay type: cell-based, bovine; conditions: with or without VEGF
Experimental: FIG. 5. Effects of PAK on remodeling of cell-cell junctions and the actin cytoskeleton. FIG. 5A: confluent BAECs on coverslips were serum-starved for 18 hours and then treated with 25 ng/ml VEGF. The cells were fixed and stained for phospho-PAK and F-actin. Images show phospho-PAK (pPAK) and F-actin (F-actin) at the indicated times after the addition of VEGF. White arrows indicate pores between cells. Scale bar=50μ. FIG. 5B: phospho-PAK (pPAK) and F-actin (F-actin) are shown in cells prepared and treated as described in FIG. 5A after 60 minutes with VEGF with peptide additions. […]
Monolayer Permeability and Paracellular Pore Formation Assays—Cells were plated onto FN-coated polycarbonate membranes (3.0-μ pore size; Transwell, Costar) at 6×10^4 cells/cm^2 and cultured for 4 days with medium changes every other day until confluence was reached. […] Medium was harvested from the lower chamber, and HRP activity was determined calorimetrically by absorbance at 490 nm to detect the […] reaction product after 15 minutes of incubation with 0.5 mM guaiacol, 50 mM Na2HPO4, and 0.6 mM H2O2. […] To quantify paracellular pore formation and correlate to permeability, the fixed cell monolayer-covered filters were stained for 2 hours with Coomassie Blue (0.25% in 1:1:2 of methanol:glacial acetic acid:double distilled (dd)H2O), destained in the same solution minus dye, rinsed in ddH2O, and air-dried. […]

O=S(=O)(c1cccc2c(I)cccc12)N1CCCNCC1 [ML7]
MLC phosphorylation induced by VEGF (myosin light chain (MLC)): inhibited

YGRKKRRQRRRGKPPAPPMRNTSTM [PAK-blocking peptide]
lung histology, peptide-only (murine lungs): equivalent to untreated mice

B1: PAK AID: PAK autoinhibitory domain, residues 83-149, cloned into the pDsRed1-N1 vector and expressed by transient transfection (protein, UniProt Q13153 83-149, looked up, fragment)
chain: HTIHVGFDAVTGEFTGMPEQWARLLQTSNITKSEQKKNPQAVLDVLEFYNSKKTSNSQKYMSFTDKS
modifications: DsRed fusion
formation of pores between adjacent cells (BAEC): inhibited pore formation
